One experiment deals with CRBN-DDB1 (Homo sapiens, UniProt Q96SW2). As to the kind of experiment: CRBN binding assay, biochemical (HTRF). The note with it: recombinant CRBN-DDB1, 1 h, read-out: Biochemical CRBN Binary Binding IC50 (nM ± SD). The method, then: Next, 400 nL of compound solution (initial concentration 10 µM, followed by a three‐fold gradient dilution) was dispensed into the wells using the positive‐pressure‐based I‐DOT dispenser. After 1 h of incubation at room temperature, the HTRF signal was measured using an Envision plate reader (Revvity). Finally, the data were analyzed using non‐linear regression curves in GraphPad Prism 9.5 software.
A general note: TR-FRET usually uses a lanthanide donor and a delayed reading to cut background.

The target of the next experiment is T1, CRBN (Homo sapiens, UniProt Q96SW2).
T1 construct: expressed in transfected cells; host or cells: HEK293T
As to the kind of experiment: Intracellular CRBN binding in NanoLuc-CRBN-overexpressing HEK293T cells. The note with it: read-out: Cellular CRBN Binding IC50 (nM ± SD). Type of experiment: cell-based. The method, then:
NanoLuc‐CRBN‐overexpressing HEK293T were seeded in 96‐well plates at a density of 2000 per well. The following day, compounds was added to the plate starting from 10 µM for a 3‐fold gradient dilution and incubated for 2 h. […] Finally, the signal was measured using an Envision plate reader (Revvity) and the data were analyzed using the GraphPad Prism 9.5 software.

The target in experiment [1] is T2, TEAD1 (Homo sapiens, UniProt P28347+Q96SW2).
T2 construct: endogenous in cells; host or cells: NCI-H1299 (TEAD1-mNeonGreen knock-in)
As to the kind of experiment: Immunoblot of TEAD1 degradation in TEAD1-mNeonGreen fusion NCI-H1299 cells. The note with it: 10 nM, 6 h, TEAD1-mNeonGreen NCI-H1299 cells. Type of experiment: cell-based. The method, then:
(§1) Immunoblotting was carried out as previously described.^[ [29] ^] Cells were seeded in 6‐well plates (Yeasen, #84011ES50) at a density of 1 million cells per well. The following day, cells were treated with compounds at the required concentrations, with the DMSO concentration kept below 0.4‰ to prevent toxic effects on the cells. The collected cell pellets were washed three times with PBS (Meilunbio, #MA0015) and resuspended in 120 µL of RIPA lysis buffer (Meilunbio, #MA0151) containing 1% protease inhibitor (Meilunbio, #MB2678‐2). The cells were then sonicated on ice and centrifuged at 12 000 rpm for 15 min at 4 °C to remove cellular debris. Protein concentrations were determined using the BCA Protein Quantification Kit (Meilunbio, #MA0082‐1). The protein samples were normalized, boiled at 99 °C for 10 min, and then subjected to electrophoresis on a 10% SDS‐PAGE gel. The separated protein bands were transferred to nitrocellulose membranes, blocked with TBST containing 5% BSA, and incubated with the indicated primary antibodies. Finally, the blots were imaged using an Amersham Typhoon NIR imager.

Experiment [2] deals with TEAD1 (Homo sapiens, UniProt P28347). As to the kind of experiment: Immunoblot in wild-type / CRBN-knockout HEK293T cells and rescue experiment. On the set-up: endogenous in cells; host or cells: HEK293T wild-type and CRBN-knockout. The note with it: HEK293T cells, 1 h pretreatment. Type of experiment: cell-based. The method, then: as §1
In general terms: A western blot detects proteins with antibodies after separation by electrophoresis.

The next experiment deals with A172 cells. As to the kind of experiment: Cell viability assay (CTG, 72 h) A172. The note with it: 3-day compound treatment. Type of experiment: cell-based. The method, then: (§2) Cells were seeded at a density of 1000 cells per well in 96‐well flat‐bottomed cell culture plates and cultured overnight at 37 °C with 5% CO2 to allow for cell attachment. The following day, different concentrations of compounds were added using an I‐DOT dispenser. After 72 h, 25 µL of CellTiter‐Meiluncell Luminescent Cell Viability Reagent (Meilunbio, #PWL111‐2) was added and incubated for 15 min at room temperature. Luminescence signals were then measured using an Envision plate reader (Revvity). Data were analyzed using GraphPad Prism 9.5 software.^[ [30] ^]

The subject of the next experiment is KLE cells. As to the kind of experiment: Cell viability assay (CTG, 72 h) KLE. Type of experiment: cell-based. The note with it: 3-day compound treatment. The method, then:
as §2

For a further experiment, the system named is HOS cells. As to the kind of experiment: Cell viability assay (CTG, 72 h) HOS. The note with it: 3-day compound treatment. Type of experiment: cell-based. The method, then: as §2
For a further experiment, the system named is ES2 cells. As to the kind of experiment: Cell viability assay (CTG, 72 h) ES2. Type of experiment: cell-based. The note with it: 3-day compound treatment. The method, then: as §2
A further experiment has as its system 867 cancer cell lines. As to the kind of experiment: PRISM assay (barcoded cell line screening, 5 days).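 Further: top test concentration 10 mM in eight-point dilution series.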 Type of experiment: cell-based. The method, then: The principle of the PRISM assay has been described elsewhere and was conducted as previously outlined by the PRISM team at the Broad Institute.^[ [14], [31] ^] In PRISM (MTS027) experiments, KG‐FP‐003 was tested across 867 different cancer cell lines. Cells were treated with eight concentration gradients, ranging from 4.6 nM to […], in triplicate dilutions over a period of five days. Each plate was treated with 20 µM bortezomib as a positive control and DMSO as a negative control. Three replicate experiments were performed for each compound. The resulting data were analyzed using GraphPad PRISM 9.5.

Sequence of CRBN-DDB1 (Q96SW2 whole entry): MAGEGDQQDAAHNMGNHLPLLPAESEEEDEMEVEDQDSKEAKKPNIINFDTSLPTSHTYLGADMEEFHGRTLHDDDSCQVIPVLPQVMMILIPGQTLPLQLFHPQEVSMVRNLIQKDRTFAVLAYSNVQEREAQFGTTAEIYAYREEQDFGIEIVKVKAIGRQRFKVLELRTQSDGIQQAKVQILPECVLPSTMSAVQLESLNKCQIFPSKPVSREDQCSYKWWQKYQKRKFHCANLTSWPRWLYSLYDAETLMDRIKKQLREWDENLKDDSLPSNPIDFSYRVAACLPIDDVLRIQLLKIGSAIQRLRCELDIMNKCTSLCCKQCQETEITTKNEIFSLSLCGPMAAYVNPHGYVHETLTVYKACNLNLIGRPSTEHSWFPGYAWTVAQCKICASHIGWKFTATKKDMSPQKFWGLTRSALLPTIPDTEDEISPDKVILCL
T1 sequence (Q96SW2 whole entry): as above
Sequence of TEAD1 (Homo sapiens, UniProt P28347) (P28347 whole entry): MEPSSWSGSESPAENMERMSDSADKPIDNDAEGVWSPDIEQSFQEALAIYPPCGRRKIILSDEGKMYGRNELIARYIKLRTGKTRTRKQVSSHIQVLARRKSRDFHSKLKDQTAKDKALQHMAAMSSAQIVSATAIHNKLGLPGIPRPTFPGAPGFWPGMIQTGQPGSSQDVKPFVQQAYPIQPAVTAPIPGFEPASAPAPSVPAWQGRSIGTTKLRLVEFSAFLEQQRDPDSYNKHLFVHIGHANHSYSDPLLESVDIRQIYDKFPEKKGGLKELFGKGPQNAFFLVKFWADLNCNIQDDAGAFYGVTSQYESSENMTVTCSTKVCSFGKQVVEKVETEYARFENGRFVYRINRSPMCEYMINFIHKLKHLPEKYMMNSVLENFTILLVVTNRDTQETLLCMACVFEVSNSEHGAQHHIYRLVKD
T2 sequence (P28347 whole entry): as above
T2 sequence (Q96SW2 whole entry): as the sequence (Q96SW2 whole entry) above
T2 sequence (Q16531 2-1140 partner limits assumed): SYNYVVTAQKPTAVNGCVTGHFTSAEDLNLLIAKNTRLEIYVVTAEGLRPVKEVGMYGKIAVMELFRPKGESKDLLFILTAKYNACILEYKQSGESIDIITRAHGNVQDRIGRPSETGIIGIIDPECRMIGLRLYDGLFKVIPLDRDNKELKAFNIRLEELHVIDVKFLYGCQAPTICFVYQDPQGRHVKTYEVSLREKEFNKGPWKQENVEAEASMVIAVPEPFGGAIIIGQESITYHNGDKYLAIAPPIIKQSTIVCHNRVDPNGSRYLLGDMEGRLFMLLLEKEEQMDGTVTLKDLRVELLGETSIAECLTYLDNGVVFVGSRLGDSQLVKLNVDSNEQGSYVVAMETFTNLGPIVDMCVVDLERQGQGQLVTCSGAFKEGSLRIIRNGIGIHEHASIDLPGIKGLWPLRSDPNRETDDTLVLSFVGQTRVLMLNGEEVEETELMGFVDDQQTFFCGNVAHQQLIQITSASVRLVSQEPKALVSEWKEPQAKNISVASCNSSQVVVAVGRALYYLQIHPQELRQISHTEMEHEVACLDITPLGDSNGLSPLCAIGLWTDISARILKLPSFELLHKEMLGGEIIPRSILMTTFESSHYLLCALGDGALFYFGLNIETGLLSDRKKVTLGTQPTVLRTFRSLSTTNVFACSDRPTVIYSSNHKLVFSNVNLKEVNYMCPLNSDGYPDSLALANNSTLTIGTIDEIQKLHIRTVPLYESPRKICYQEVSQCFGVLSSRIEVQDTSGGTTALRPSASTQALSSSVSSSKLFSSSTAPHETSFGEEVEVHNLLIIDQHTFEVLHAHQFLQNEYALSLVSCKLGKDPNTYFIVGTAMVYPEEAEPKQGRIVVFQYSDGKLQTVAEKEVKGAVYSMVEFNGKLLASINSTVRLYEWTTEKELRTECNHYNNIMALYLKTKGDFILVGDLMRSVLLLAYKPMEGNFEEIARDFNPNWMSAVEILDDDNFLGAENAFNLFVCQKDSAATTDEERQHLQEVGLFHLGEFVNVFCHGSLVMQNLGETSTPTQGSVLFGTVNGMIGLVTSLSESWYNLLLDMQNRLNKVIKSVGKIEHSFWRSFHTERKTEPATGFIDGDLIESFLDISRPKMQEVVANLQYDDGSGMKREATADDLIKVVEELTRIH

In general, IC50 refers to the midpoint of a concentration-inhibition curve. As for `CNC(=O)c1cc2c(c(F)c1-c1c(Cl)c(F)cc3c1C[C@@](CNC(=O)CCCCC(=O)Nc1ccc4c(c1)C(=O)N(C1CCC(=O)NC1=O)C4=O)(c1ccccc1)O3)[C@@H](O)[C@@H](C)C2` (stereo partly drawn) [KG-FP-008], the IC50 at CRBN-DDB1 stood at 126 ± 47 nM; on CRBN, 426 ± 176 nM.

For `CNC(=O)c1cc2c(c(F)c1-c1c(Cl)c(F)cc3c1C[C@@](CN[C@H]1CC[C@H](C(=O)N4CCC(CC5CCN(C(=O)COc6ccc7c(c6)C(=O)N(C6CCC(=O)NC6=O)C7=O)CC5)CC4)CC1)(c1ccccc1)O3)[C@@H](O)[C@@H](C)C2` (stereo partly drawn) [KG-FP-009], the IC50 on CRBN-DDB1 is 152 ± 12 nM; at CRBN it was 1380 ± 794 nM. Besides, the “Target degradation by immunoblot” value at TEAD1 [1] is “significant target degradation”.

`CNC(=O)c1cc2c(c(F)c1-c1c(Cl)c(F)cc3c1C[C@@](CN[C@H]1CC[C@H](C(=O)NCCCCC(=O)Nc4ccc(C)c(N5CCC(=O)NC5=O)c4)CC1)(c1ccccc1)O3)[C@@H](O)[C@@H](C)C2` [KG-FP-010]: the results for the concentration for half-maximal inhibition (IC50) on CRBN-DDB1 and at CRBN were 474 ± 14 nM and 1700 ± 384 nM, respectively.

In the case of `Nc1cccc2c1CN(C1CCC(=O)NC1=O)C2=O` (stereo not drawn) [Lenalidomide, lenalidomide], at TEAD1 [2], the “Rescue: effect of pretreatment on KG-FP-003-mediated TEAD1 degradation” value (“Rescue: effect of pretreatment” for short) was “effectively blocked”.

Take `NS(=O)(=O)OC[C@@H]1C[C@@H](n2ccc3c(N[C@H]4CCc5ccccc54)ncnc32)C[C@@H]1O` [MLN4924]: the “Rescue: effect of pretreatment” value on TEAD1 [2] is listed as “effectively blocked”.

With `C=C(F)C(=O)N1C[C@@H](Nc2ncccn2)[C@H](OCc2ccc(C(F)(F)F)cc2)C1` [MYF-03-176, reference compound], the half-inhibitory concentration (IC50) is greater than 3000 nM with A172 cells, 1410 ± 479 nM with KLE cells, 922 ± 404 nM in the experiment with HOS cells and greater than 2000 nM in the experiment with ES2 cells. Besides, the “PRISM AUC” value in the experiment on 867 cancer cell lines (Cell line: A172, 5 days) was determined as 0.59; in the experiment with 867 cancer cell lines (Cell line: ES2, 5 days) it was 1.00; in the experiment with 867 cancer cell lines (Cell line: HOS, 5 days) it was 0.90; with 867 cancer cell lines (Cell line: KLE, 5 days) it was 1.00.

For the compound `CC(C)C[C@H](NC(=O)[C@H](Cc1ccccc1)NC(=O)c1cnccn1)B(O)O` [bortezomib], the “Rescue: effect of pretreatment” value on TEAD1 [2] is on record as “effectively blocked”.
